Experimental findings from PubChem BioAssay AID504934 (The Scripps Research Institute Molecular Screening Center, 2011) are described below.

The source made the active and inactive calls. The rule behind the calls is not given here.

What all share (test): PubChem AID 504934
Experiment [1] has as its target Bile acid receptor (Homo sapiens) (UniProt Q96RI1). As to conditions: nuclear receptor panel Gal4 luciferase reporter, FXR, at 10 µM. (Reporter assays use an easily measured gene product as a stand-in for the process of interest.)
For experiment [2], the system named is Coup-TF1. The following applies: nuclear receptor panel Gal4 luciferase reporter, at 10 µM.
Experiment [3] concerns EAR-2 (COUP-TF3). The following applies: nuclear receptor panel Gal4 luciferase reporter, at 10 µM.
The test system of experiment [4] is ERRg. As to conditions: nuclear receptor panel Gal4 luciferase reporter, at 10 µM.
In experiment [5] the target is Estrogen receptor (Homo sapiens) (UniProt P03372). As to conditions: nuclear receptor panel Gal4 luciferase reporter, ESR1 (ESRA; Era), at 10 µM.
Experiment [6] concerns the target Glucocorticoid receptor (Homo sapiens) (UniProt P04150). The following applies: nuclear receptor panel Gal4 luciferase reporter, GCCR, at 10 µM.
The target of experiment [7] is Hepatocyte nuclear factor 4-alpha (Homo sapiens) (UniProt P41235). The following applies: nuclear receptor panel Gal4 luciferase reporter, HNF4a, at 10 µM.
Experiment [8] has as its system MR. As to conditions: nuclear receptor panel Gal4 luciferase reporter, at 10 µM.
Experiment [9] concerns NOR1. As to conditions: nuclear receptor panel Gal4 luciferase reporter, at 10 µM.
For experiment [10], the target named is Nuclear receptor ROR-gamma (Homo sapiens) (UniProt P51449). The following applies: nuclear receptor panel Gal4 luciferase reporter, RORg, at 10 µM.
Experiment [11] addresses Nuclear receptor subfamily 0 group B member 1 (Homo sapiens) (UniProt P51843). The following applies: nuclear receptor panel Gal4 luciferase reporter, DAX, at 10 µM.
The target in experiment [12] is Nuclear receptor subfamily 5 group A member 2 (Homo sapiens) (UniProt O00482). As to conditions: nuclear receptor panel Gal4 luciferase reporter, LRH1, at 10 µM.
In experiment [13] the test system is Nur77. The following applies: nuclear receptor panel Gal4 luciferase reporter, at 10 µM.
Experiment [14] relates to PNR. The following applies: nuclear receptor panel Gal4 luciferase reporter, at 10 µM.
In experiment [15] the test system is RARb. As to conditions: nuclear receptor panel Gal4 luciferase reporter, at 10 µM.
Experiment [16] deals with RARg. The following applies: nuclear receptor panel Gal4 luciferase reporter, at 10 µM.
Experiment [17] concerns RXRg. As to conditions: nuclear receptor panel Gal4 luciferase reporter, at 10 µM.
Experiment [18] addresses Retinoic acid receptor RXR-alpha (Homo sapiens) (UniProt P19793). The following applies: nuclear receptor panel Gal4 luciferase reporter, RXRa, at 10 µM.
In experiment [19] the target is Retinoic acid receptor RXR-beta (Homo sapiens) (UniProt P28702). The following applies: nuclear receptor panel Gal4 luciferase reporter, RXRb, at 10 µM.
In experiment [20] the test system is Rev-erb b. The following applies: nuclear receptor panel Gal4 luciferase reporter, at 10 µM.
Experiment [21] has as its system THRb. As to conditions: nuclear receptor panel Gal4 luciferase reporter, at 10 µM.
Experiment [22] deals with VDR. As to conditions: nuclear receptor panel Gal4 luciferase reporter, at 10 µM.

Sequence of Nuclear receptor ROR-gamma (Homo sapiens) (P51449 whole entry, looked up, the tested form may be a part): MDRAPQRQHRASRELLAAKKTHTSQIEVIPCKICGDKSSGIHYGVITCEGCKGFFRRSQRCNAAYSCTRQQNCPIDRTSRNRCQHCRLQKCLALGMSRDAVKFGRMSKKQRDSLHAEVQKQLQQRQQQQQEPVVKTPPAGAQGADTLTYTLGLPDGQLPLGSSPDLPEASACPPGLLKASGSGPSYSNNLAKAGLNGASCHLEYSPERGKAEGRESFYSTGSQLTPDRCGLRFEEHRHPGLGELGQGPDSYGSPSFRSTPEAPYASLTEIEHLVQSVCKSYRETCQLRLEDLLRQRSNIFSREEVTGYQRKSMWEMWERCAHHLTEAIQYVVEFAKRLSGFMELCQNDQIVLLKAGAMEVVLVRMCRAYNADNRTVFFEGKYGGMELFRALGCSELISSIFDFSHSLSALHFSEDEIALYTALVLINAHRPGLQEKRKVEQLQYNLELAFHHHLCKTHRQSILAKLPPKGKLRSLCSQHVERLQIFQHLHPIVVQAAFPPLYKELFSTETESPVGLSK
Sequence of Estrogen receptor (Homo sapiens) (P03372 whole entry, looked up, the tested form may be a part): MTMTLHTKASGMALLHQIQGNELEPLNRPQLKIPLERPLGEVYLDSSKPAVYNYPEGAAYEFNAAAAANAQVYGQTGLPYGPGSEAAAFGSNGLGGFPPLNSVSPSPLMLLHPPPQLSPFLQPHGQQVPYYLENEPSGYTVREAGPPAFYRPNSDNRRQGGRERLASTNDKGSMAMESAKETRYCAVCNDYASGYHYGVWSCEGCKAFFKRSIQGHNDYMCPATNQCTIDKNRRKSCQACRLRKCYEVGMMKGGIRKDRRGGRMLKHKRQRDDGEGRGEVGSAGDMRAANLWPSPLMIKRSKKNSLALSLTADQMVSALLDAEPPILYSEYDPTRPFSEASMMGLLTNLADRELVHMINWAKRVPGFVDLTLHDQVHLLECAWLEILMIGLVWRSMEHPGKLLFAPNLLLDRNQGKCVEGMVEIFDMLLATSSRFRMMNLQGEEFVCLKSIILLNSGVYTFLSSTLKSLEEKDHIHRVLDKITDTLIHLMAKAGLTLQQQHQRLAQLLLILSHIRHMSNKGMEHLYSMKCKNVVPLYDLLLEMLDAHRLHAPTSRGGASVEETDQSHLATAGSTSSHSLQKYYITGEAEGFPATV
Sequence of Retinoic acid receptor RXR-alpha (Homo sapiens) (P19793 whole entry, looked up, the tested form may be a part): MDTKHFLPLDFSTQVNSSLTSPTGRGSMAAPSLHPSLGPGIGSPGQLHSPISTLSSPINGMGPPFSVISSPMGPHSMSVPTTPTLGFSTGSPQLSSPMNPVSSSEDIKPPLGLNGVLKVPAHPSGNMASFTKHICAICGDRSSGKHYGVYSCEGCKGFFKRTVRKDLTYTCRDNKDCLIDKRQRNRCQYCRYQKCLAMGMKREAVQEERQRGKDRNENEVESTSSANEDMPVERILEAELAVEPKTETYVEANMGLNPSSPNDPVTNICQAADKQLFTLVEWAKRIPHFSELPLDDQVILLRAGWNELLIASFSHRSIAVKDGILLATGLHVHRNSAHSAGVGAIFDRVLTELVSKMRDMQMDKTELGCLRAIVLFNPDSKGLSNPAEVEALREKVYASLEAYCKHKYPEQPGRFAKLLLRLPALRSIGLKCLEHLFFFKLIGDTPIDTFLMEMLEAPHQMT
Sequence of Nuclear receptor subfamily 0 group B member 1 (Homo sapiens) (P51843 whole entry, looked up, the tested form may be a part): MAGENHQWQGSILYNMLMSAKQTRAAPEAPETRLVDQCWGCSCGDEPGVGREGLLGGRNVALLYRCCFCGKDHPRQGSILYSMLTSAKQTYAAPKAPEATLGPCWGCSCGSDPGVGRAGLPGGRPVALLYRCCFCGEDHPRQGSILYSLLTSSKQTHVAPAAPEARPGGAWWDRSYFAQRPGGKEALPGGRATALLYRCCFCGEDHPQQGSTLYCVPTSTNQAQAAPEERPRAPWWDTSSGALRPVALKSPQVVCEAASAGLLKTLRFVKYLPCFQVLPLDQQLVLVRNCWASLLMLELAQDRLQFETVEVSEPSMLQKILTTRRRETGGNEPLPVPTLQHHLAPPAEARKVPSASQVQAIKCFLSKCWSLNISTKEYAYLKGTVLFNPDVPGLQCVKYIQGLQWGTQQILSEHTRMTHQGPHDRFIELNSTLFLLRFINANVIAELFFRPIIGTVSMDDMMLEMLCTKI
Sequence of Retinoic acid receptor RXR-beta (Homo sapiens) (P28702 whole entry, looked up, the tested form may be a part): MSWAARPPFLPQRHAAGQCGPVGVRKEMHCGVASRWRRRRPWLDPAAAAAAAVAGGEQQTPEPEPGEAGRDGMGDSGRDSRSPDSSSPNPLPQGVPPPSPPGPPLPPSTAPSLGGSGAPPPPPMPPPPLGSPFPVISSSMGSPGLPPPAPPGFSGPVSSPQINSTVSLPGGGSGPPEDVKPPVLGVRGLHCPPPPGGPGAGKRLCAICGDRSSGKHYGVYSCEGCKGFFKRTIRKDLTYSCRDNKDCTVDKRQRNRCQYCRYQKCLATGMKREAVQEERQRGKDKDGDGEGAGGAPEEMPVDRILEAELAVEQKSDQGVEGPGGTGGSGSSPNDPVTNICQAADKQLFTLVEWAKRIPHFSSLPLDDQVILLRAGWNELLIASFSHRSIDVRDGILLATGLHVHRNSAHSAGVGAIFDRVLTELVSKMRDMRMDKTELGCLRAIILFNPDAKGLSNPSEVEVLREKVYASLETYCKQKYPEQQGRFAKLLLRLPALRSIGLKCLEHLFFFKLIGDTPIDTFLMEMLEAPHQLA
Sequence of Bile acid receptor (Homo sapiens) (Q96RI1 whole entry, looked up, the tested form may be a part): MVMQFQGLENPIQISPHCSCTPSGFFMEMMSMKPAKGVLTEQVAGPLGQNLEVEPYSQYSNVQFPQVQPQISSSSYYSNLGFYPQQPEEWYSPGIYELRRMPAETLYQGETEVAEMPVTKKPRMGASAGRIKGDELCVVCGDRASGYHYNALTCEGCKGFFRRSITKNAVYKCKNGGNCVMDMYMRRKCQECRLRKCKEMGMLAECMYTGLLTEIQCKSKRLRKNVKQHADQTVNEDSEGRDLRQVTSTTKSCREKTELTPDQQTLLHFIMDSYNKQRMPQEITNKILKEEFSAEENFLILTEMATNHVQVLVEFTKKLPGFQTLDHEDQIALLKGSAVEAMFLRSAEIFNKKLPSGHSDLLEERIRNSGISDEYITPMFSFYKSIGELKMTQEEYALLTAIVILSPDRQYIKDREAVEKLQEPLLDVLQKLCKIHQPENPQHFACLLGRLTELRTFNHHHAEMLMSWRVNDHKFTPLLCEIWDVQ
Sequence of Hepatocyte nuclear factor 4-alpha (Homo sapiens) (P41235 whole entry, looked up, the tested form may be a part): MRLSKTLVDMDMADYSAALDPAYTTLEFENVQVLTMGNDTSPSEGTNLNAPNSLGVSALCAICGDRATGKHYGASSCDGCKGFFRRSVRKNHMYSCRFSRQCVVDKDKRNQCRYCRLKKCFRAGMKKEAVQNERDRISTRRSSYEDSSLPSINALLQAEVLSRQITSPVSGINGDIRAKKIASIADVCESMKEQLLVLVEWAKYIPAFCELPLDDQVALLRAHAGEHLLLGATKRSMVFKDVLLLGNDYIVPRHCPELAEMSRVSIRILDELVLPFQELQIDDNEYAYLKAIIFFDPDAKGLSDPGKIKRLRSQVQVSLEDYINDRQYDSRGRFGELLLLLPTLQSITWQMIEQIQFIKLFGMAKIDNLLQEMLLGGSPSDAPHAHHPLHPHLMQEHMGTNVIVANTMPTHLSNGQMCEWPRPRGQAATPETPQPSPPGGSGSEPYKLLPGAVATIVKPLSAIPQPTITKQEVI
Sequence of Nuclear receptor subfamily 5 group A member 2 (Homo sapiens) (O00482 whole entry, looked up, the tested form may be a part): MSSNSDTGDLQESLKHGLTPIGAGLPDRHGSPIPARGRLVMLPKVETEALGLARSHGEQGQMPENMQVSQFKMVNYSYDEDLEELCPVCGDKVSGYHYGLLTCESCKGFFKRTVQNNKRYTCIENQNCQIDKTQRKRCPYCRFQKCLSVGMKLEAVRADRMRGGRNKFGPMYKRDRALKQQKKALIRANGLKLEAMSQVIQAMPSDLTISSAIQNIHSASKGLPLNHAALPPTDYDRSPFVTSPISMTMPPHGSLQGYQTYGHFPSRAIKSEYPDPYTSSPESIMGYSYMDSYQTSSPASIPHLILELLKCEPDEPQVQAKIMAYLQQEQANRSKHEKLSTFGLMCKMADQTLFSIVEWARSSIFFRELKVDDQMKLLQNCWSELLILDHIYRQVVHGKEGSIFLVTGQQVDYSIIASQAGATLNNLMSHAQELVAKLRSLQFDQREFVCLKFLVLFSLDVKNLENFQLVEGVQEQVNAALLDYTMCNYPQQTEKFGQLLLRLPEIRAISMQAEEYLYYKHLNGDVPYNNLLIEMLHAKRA
Sequence of Glucocorticoid receptor (Homo sapiens) (P04150 whole entry, looked up, the tested form may be a part): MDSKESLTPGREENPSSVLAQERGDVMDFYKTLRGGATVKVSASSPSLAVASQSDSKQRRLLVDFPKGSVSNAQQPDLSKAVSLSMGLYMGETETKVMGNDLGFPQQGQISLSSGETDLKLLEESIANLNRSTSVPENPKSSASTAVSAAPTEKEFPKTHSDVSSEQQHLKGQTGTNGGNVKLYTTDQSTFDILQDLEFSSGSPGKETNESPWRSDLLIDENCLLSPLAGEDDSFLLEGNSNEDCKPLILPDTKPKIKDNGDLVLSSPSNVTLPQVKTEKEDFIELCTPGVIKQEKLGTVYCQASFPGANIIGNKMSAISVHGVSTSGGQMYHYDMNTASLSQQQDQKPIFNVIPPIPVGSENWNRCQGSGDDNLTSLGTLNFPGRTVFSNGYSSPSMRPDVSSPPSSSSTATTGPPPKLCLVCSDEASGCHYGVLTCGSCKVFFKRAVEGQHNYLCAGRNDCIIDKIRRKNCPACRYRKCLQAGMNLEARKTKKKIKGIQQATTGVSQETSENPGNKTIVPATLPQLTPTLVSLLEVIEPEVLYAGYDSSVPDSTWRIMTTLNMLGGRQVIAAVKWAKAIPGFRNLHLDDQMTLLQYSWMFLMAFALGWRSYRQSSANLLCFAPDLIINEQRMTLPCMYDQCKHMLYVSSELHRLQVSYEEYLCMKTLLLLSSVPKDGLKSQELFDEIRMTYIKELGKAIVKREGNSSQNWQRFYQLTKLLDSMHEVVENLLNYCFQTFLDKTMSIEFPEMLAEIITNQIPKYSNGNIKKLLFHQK

Turning to `O=c1cc(N2CCN(c3cccc(Cl)c3)CC2)[nH]c(=O)n1C1CCCCC1`, the fold change in experiment [1] was 2.52; in experiment [2] it was 0.72; in experiment [3], 1 (inactive); in experiment [4], 0.49; in experiment [5] it was 0.61; in [6] it was 1.13 (inactive). In addition, the fold change is 0.61 in [7]; 1.41 in [8]; 0.87 (inactive) in experiment [9]; 0.52 in experiment [10]; 1.03 (inactive) in experiment [11]; 0.88 (inactive) in [12]. For the same molecule, the fold change in experiment [13] is 0.72; in experiment [14], 0.72; in experiment [15] it was 0.54; in experiment [16], 0.56; in experiment [17], 0.81 (inactive); in experiment [18] it was 0.75. For the same molecule, the fold change is 0.78 in experiment [19], 0.69 in experiment [20], 1.06 (inactive) in [21] and 0.83 (inactive) in experiment [22].
